Measurements reported in the NIST ThermoML archive (doi:10.1016/j.fluid.2011.01.021).
± gives the expanded uncertainty stated by the source.

Tests used:
[1] = refractive index (Na D-line) (dimensionless); conditions: 298.15 K; 101.33 kPa; Liquid; Standard Abbe refractometry
[2] = 298.15 K; 101.33 kPa; Liquid; Vibrating tube method

SMILES: CCOS(=O)(=O)[O-].CCn1cc[n+](C)c1 [1-ethyl-3-methylimidazolium ethyl sulfate]
- refractive index [1]: 1.4791 ± 0.0007
- mass density [2]: 1237.23 ± 0.43 kg/m3
